Results as given in patent US10670605B2, “Cysteine reactive probes and uses thereof” (The Scripps Research Institute, priority 2015, dated 2020).

Key:
Experiment in all cases: Competitive isoTOP-ABPP in situ (fragment-treated cells)
Type in all cases: cell-based
[1] = target: cysteines in MDA-MB-231 and Ramos cells (Homo sapiens, UniProt O14980)
[2] = target: cysteines in MDA-MB-231 and Ramos cells (Homo sapiens, UniProt P35658)
[3] = target: T1, cysteines in MDA-MB-231 and Ramos cells (Homo sapiens, UniProt Q8NFH5)
T1 sequence (Q8NFH5 1-326): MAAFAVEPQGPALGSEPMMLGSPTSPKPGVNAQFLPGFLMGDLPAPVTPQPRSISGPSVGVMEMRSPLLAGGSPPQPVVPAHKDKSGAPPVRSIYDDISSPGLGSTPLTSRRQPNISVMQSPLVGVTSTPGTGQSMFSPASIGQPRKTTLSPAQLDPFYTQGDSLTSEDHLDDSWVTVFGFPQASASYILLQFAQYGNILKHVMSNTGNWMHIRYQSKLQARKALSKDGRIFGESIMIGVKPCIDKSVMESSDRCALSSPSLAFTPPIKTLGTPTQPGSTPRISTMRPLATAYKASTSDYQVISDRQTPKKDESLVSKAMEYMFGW

[4] = target: cysteines in MDA-MB-231 and Ramos cells (Homo sapiens, UniProt Q15149)
[5] = target: T2, cysteines in MDA-MB-231 and Ramos cells (Homo sapiens, UniProt Q96EB1)
T2 sequence (Q96EB1 1-424): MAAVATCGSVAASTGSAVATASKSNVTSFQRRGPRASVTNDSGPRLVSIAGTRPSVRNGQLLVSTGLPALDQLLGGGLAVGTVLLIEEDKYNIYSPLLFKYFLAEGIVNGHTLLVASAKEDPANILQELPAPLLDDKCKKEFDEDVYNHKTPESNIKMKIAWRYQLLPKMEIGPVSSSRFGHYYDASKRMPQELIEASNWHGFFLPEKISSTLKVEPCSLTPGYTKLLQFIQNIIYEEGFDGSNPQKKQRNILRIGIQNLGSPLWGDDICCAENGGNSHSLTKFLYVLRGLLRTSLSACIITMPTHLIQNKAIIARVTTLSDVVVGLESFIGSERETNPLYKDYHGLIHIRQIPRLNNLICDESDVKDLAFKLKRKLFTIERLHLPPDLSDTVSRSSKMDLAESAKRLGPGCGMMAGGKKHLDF

[6] = target: T3, cysteines in MDA-MB-231 and Ramos cells (Homo sapiens, UniProt O75717)
T3 sequence (O75717 1-1129): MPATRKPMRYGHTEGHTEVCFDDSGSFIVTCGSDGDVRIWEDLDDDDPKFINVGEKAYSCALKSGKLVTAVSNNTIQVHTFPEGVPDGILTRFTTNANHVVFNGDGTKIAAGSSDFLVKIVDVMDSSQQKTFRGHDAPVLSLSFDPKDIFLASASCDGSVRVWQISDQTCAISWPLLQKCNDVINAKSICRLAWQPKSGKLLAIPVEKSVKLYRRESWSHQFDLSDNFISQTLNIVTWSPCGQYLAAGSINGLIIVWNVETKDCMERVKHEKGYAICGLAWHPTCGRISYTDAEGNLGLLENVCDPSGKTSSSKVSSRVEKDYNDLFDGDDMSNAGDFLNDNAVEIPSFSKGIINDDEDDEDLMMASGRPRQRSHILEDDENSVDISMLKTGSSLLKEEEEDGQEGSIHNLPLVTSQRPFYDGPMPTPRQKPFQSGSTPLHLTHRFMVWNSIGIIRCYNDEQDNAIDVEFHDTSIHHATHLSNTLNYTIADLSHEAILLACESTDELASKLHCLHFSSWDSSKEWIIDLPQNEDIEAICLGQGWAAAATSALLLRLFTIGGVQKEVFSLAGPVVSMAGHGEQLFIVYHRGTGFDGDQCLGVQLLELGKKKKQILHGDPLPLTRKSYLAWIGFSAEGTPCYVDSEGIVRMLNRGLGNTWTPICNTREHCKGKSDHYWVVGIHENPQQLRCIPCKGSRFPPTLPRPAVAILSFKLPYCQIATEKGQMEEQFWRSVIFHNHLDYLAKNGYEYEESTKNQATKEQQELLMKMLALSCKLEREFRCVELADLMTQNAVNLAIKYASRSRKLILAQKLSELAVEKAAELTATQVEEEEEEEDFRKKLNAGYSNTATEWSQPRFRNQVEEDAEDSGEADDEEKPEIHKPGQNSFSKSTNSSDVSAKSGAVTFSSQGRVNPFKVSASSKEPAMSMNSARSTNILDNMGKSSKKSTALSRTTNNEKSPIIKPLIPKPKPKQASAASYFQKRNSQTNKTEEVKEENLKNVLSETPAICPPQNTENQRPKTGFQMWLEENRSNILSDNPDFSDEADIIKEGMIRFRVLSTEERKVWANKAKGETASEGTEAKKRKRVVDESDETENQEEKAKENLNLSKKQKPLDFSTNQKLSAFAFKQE

[7] = target: T4, cysteines in MDA-MB-231 and Ramos cells (Homo sapiens, UniProt P19447)
T4 sequence (P19447 1-782): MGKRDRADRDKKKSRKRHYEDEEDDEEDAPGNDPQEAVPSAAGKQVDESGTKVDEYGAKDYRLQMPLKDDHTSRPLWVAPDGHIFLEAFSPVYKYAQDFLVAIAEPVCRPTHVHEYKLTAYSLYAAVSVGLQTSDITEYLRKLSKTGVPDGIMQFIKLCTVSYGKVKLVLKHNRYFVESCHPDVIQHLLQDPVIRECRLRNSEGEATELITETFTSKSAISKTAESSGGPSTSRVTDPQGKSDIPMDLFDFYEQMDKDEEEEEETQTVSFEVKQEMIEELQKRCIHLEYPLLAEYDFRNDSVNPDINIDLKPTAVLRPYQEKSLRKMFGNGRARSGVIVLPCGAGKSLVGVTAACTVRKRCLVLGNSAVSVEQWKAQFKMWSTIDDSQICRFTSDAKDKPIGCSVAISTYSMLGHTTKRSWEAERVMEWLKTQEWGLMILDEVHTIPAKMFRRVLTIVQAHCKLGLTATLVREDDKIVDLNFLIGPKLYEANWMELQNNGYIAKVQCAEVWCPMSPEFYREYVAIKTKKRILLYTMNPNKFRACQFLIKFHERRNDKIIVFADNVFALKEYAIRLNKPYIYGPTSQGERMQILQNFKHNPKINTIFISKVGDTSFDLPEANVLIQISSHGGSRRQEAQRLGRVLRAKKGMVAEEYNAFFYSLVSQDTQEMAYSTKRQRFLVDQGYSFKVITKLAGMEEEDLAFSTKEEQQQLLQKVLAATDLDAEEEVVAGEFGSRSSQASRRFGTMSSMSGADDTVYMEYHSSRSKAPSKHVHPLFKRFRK

Sequence of cysteines in MDA-MB-231 and Ramos cells (Homo sapiens, UniProt Q15149) (Q15149 whole entry): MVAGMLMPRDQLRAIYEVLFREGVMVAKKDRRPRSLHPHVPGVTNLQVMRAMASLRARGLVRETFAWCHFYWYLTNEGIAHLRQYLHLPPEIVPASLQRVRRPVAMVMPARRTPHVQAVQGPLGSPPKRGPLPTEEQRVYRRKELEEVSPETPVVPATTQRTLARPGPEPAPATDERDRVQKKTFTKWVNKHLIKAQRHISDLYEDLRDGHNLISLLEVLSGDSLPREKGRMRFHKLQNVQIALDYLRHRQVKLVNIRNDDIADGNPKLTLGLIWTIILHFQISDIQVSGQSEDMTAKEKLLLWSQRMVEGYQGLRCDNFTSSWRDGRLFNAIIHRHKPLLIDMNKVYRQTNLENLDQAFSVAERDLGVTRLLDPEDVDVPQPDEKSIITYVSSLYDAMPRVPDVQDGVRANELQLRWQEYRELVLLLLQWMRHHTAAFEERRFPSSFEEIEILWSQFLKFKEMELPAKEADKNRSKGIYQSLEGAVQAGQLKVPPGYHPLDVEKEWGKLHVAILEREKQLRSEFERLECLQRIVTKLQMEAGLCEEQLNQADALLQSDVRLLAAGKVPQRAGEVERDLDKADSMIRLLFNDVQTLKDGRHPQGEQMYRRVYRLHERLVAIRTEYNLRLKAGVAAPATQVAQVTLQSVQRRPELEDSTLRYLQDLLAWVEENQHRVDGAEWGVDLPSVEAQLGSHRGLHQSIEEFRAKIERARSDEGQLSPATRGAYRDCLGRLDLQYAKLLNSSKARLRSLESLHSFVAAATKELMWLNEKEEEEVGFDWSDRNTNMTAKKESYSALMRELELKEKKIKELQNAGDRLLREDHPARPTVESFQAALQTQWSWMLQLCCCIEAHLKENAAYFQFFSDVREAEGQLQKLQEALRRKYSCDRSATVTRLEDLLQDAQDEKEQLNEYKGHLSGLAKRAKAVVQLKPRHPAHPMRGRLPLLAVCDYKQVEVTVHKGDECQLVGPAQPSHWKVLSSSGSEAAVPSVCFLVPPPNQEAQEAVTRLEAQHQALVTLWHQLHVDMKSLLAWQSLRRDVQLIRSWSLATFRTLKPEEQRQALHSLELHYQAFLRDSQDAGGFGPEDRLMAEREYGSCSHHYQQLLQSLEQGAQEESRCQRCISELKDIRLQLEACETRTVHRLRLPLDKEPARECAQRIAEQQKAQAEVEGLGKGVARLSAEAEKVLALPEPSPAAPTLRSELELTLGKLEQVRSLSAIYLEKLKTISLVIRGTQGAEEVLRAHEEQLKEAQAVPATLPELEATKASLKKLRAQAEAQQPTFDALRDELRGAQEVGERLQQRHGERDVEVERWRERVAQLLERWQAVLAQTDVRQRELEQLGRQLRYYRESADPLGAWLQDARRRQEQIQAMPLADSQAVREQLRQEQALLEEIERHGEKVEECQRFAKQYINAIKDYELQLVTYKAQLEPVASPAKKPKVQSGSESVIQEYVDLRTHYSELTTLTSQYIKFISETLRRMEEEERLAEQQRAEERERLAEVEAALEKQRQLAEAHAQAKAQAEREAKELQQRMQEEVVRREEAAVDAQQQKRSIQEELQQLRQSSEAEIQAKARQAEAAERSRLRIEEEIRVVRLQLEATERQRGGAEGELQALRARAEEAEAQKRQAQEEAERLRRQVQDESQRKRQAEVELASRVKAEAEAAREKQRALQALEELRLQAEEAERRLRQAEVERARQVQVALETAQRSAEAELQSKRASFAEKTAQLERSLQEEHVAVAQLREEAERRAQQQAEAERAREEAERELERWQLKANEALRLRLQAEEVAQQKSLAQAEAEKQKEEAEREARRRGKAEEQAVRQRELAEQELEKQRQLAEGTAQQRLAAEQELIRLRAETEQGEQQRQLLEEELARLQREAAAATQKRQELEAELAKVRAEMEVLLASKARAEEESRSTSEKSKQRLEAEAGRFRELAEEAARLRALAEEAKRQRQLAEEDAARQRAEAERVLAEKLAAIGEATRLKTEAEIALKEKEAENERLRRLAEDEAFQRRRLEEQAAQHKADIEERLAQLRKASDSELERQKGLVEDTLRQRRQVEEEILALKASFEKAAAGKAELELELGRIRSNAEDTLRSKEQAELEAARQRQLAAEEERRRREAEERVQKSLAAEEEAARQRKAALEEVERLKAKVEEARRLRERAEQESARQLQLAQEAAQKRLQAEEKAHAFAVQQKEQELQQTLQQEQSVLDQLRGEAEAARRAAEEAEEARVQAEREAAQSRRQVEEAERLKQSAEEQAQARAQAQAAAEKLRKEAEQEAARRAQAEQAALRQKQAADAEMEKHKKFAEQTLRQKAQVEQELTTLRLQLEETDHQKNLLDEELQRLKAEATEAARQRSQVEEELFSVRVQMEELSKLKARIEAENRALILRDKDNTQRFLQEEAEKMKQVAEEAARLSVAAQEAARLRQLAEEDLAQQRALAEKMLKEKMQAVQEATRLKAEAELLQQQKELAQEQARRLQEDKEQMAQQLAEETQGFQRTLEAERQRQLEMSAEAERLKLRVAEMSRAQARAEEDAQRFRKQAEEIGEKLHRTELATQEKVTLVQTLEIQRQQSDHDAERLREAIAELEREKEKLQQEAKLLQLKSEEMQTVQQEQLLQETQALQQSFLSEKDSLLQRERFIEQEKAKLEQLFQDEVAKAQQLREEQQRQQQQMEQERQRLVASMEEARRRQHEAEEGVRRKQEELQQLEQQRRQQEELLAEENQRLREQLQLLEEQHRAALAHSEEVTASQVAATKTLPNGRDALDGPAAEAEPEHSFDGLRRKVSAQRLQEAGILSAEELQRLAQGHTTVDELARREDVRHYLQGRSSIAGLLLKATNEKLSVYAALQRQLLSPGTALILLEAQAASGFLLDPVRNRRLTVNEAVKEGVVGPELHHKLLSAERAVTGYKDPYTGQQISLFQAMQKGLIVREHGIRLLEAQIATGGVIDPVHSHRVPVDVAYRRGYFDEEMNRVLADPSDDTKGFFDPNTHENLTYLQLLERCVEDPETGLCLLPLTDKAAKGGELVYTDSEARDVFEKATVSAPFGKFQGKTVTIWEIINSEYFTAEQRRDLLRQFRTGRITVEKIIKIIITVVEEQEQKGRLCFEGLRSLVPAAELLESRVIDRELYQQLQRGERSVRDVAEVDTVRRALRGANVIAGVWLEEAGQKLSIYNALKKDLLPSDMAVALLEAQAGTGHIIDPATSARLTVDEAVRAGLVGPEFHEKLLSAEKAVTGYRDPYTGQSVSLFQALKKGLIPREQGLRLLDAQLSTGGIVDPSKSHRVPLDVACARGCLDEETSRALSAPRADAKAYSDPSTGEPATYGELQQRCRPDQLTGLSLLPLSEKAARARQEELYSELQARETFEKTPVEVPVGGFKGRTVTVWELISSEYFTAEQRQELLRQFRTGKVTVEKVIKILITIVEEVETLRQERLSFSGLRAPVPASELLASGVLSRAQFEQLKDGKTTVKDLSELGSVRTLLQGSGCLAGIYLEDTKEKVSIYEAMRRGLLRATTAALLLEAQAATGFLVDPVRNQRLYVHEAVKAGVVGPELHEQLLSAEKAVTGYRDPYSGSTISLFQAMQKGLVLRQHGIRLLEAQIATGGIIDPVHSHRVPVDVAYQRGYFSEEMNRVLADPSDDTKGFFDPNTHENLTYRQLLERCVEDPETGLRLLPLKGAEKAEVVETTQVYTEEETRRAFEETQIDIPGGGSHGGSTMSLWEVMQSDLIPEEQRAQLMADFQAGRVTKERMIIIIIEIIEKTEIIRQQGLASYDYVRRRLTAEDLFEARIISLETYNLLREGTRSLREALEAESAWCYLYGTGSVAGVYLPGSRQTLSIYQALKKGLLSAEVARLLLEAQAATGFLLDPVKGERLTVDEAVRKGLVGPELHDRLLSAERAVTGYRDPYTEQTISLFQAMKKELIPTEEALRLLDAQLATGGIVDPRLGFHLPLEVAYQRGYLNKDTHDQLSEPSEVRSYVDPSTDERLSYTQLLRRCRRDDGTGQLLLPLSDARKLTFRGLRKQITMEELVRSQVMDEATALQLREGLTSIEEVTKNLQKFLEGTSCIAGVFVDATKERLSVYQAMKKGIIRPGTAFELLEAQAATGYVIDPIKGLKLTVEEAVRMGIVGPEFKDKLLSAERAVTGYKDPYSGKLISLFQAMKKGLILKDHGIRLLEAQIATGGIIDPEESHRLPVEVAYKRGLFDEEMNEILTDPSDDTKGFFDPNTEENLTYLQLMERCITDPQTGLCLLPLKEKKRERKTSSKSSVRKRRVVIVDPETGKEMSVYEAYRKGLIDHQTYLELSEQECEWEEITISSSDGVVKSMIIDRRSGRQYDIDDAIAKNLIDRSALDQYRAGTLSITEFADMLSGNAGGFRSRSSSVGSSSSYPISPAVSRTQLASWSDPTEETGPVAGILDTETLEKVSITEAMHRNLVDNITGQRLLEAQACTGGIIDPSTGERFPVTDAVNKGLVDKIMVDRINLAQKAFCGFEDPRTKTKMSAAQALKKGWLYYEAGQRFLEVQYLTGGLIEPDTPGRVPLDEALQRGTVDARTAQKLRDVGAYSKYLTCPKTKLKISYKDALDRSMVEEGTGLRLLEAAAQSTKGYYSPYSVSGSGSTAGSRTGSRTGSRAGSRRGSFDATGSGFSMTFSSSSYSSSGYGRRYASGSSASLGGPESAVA

COc1ccc2c(c1)CCCN2C(=O)CCl [compound 2]
isoTOP-ABPP reactivity O14980_0528 XPO1 ([1]; 200 μM, insitu, 231): 20.0
isoTOP-ABPP reactivity P35658_C728 NUP214 ([2]; 200 μM, insitu, 231): 3.9
isoTOP-ABPP reactivity Q8NFH5_C255 NUP35 ([3]; 200 μM, insitu, 231): 5.1

COc1ccc(C2CC(c3cccs3)=NN2C(=O)CCl)cc1 (stereo not shown) [compound 4]
isoTOP-ABPP reactivity O14980_0528 XPO1 ([1]; 100 μM in situ 231): 1.9
isoTOP-ABPP reactivity Q15149_C4574 PLEC ([4]; 100 μM in situ 231): 4.2
isoTOP-ABPP reactivity Q96EB1_C218 ELP4 ([5]; 100 μM in situ 231): 20.0
isoTOP-ABPP reactivity P35658_C728 NUP214 ([2]; 100 μM in situ 231): 1.7
isoTOP-ABPP reactivity Q8NFH5_C255 NUP35 ([3]; 100 μM in situ 231): 3.9

COc1cc2c(cc1OC)CN(C(=O)CCl)CC2 [compound 8]
isoTOP-ABPP reactivity O75717_C773 WDHDl ([6]; 200 μM, insitu, 231): 4.2
isoTOP-ABPP reactivity P19447_C342 ERCC3 ([7]; 200 μM, insitu, 231): 12.4

O=C(CCl)N1CCC(Cc2ccccc2)CC1 [compound 9]
isoTOP-ABPP reactivity Q15149_C4574 PLEC ([4]; 200 μM, insitu, 231): 0.8
isoTOP-ABPP reactivity Q96EB1_C218 ELP4 ([5]; 200 μM, insitu, 231): 8.4

O=C(CCl)N1CCN(S(=O)(=O)c2ccccc2F)CC1 [compound 10]
isoTOP-ABPP ratio O14980_C528 ([1]; 200 μM, insitu, 231): 1.3
isoTOP-ABPP ratio O14980_C528 ([1]; 200 μM, insitu, ramos): 0.7
isoTOP-ABPP ratio, cysteine Q15149_C4574 ([4]; 200 μM, insitu, 231): 2.2
isoTOP-ABPP ratio, cysteine Q96EB1_C218 ([5]; 200 μM, insitu, 231): 1.1
isoTOP-ABPP ratio P35658_C728 ([2]; 200 μM, insitu, 231): 20.0
isoTOP-ABPP ratio Q8NFH5_C255 ([3]; 200 μM, insitu, 231): 3.5
isoTOP-ABPP ratio, cysteine O75717_C773 ([6]; 200 μM, insitu, 231): 2.2
isoTOP-ABPP ratio P19447_C342 ([7]; 200 μM, insitu, 231): 20.0

Cn1cc(S(=O)(=O)N2CCOCC2)cc1C(=O)NC(=O)CCl [compound 11]
isoTOP-ABPP ratio O14980_C528 ([1]; 100 μM in situ 231): 0.7
isoTOP-ABPP ratio, cysteine Q15149_C4574 ([4]; 100 μM in situ 231): 1.1
isoTOP-ABPP ratio P35658_C728 ([2]; 100 μM in situ 231): 0.8
isoTOP-ABPP ratio Q8NFH5_C255 ([3]; 100 μM in situ 231): 1.3
isoTOP-ABPP ratio, cysteine O75717_C773 ([6]; 100 μM in situ 231): 1.2
isoTOP-ABPP ratio P19447_C342 ([7]; 100 μM in situ 231): 0.7

O=C(CCl)NC(=O)NC12CC3CC(CC(C3)C1)C2 [compound 12]
isoTOP-ABPP ratio Q8NFH5_C255 ([3]; 200 μM, insitu, 231): 12.4
isoTOP-ABPP ratio P19447_C342 ([7]; 200 μM, insitu, 231): 6.7

O=C(CCl)NCCc1c[nH]c2ccccc12 [compound 13]
isoTOP-ABPP ratio O14980_C528 ([1]; 200 μM, insitu, 231): 1.1
isoTOP-ABPP ratio O14980_C528 ([1]; 200 μM, insitu, ramos): 1.1
isoTOP-ABPP ratio, cysteine Q15149_C4574 ([4]; 200 μM, insitu, 231): 1.4
isoTOP-ABPP ratio, cysteine Q96EB1_C218 ([5]; 200 μM, insitu, 231): 1.2
isoTOP-ABPP ratio, cysteine Q96EB1_C218 ([5]; 200 μM, insitu, ramos): 1.7
isoTOP-ABPP ratio P35658_C728 ([2]; 200 μM, insitu, 231): 1.0
isoTOP-ABPP ratio Q8NFH5_C255 ([3]; 200 μM, insitu, 231): 1.5
isoTOP-ABPP ratio, cysteine O75717_C773 ([6]; 200 μM, insitu, 231): 1.1
isoTOP-ABPP ratio P19447_C342 ([7]; 200 μM, insitu, 231): 1.1

O=C(CCl)NC12CC3CC(CC(C3)C1)C2 [compound 21]
isoTOP-ABPP ratio O14980_C528 ([1]; 200 μM, insitu, 231): 0.8
isoTOP-ABPP ratio, cysteine Q15149_C4574 ([4]; 200 μM, insitu, 231): 1.0
isoTOP-ABPP ratio, cysteine Q96EB1_C218 ([5]; 200 μM, insitu, 231): 0.7
isoTOP-ABPP ratio P35658_C728 ([2]; 200 μM, insitu, 231): 1.3
isoTOP-ABPP ratio Q8NFH5_C255 ([3]; 200 μM, insitu, 231): 1.8
isoTOP-ABPP ratio P19447_C342 ([7]; 200 μM, insitu, 231): 2.0

CC(C)CCOCCNC(=O)CCl [compound 27]
isoTOP-ABPP ratio Q15149_C4574 ([4]; 200 μM, insitu, 231): 1.3
isoTOP-ABPP ratio Q96EB1_C218 ([5]; 200 μM, insitu, 231): 0.6

O=C(CCl)N1CCN(CC(=O)N2CCOCC2)CC1 [compound 29]
isoTOP-ABPP ratio O14980_C528 ([1]; 200 μM, insitu, ramos): 1.1
isoTOP-ABPP ratio Q96EB1_C218 ([5]; 200 μM, insitu, ramos): 1.1
isoTOP-ABPP ratio P35658_C728 ([2]; 200 μM, insitu, ramos): 1.7
isoTOP-ABPP ratio Q8NFH5_C255 ([3]; 200 μM, insitu, ramos): 1.6

C=CC(=O)N(Cc1cccnc1)c1cc(C(F)(F)F)cc(C(F)(F)F)c1 [compound 31]
isoTOP-ABPP ratio P35658_C728 ([2]; 200 μM, insitu, 231): 0.7

C=CC(=O)Nc1cc(F)c(N2CCN(C(=O)OC(C)(C)C)CC2)c(F)c1 [compound 38]
isoTOP-ABPP ratio O14980_C528 ([1]; 200 μM, insitu, 231): 2.1
isoTOP-ABPP ratio Q96EB1_C218 ([5]; 200 μM, insitu, 231): 1.3
isoTOP-ABPP ratio Q8NFH5_C255 ([3]; 200 μM, insitu, 231): 1.1
isoTOP-ABPP ratio O75717_C773 ([6]; 200 μM, insitu, 231): 2.3
isoTOP-ABPP ratio P19447_C342 ([7]; 200 μM, insitu, 231): 1.0

Cc1ccc(C=C(C#N)C(=O)NCCN2CCOCC2)cc1 [compound 41]
isoTOP-ABPP ratio O14980_C528 ([1]; 200 μM, insitu, 231): 0.9
isoTOP-ABPP ratio Q15149_C4574 ([4]; 200 μM, insitu, 231): 0.9
isoTOP-ABPP ratio P35658_C728 ([2]; 200 μM, insitu, 231): 1.1
isoTOP-ABPP ratio Q8NFH5_C255 ([3]; 200 μM, insitu, 231): 0.8
isoTOP-ABPP ratio O75717_C773 ([6]; 200 μM, insitu, 231): 1.0
isoTOP-ABPP ratio P19447_C342 ([7]; 200 μM, insitu, 231): 0.7

CC1CCc2ccccc2N1C(=O)CCl (stereo not shown) [compound 45]
isoTOP-ABPP ratio Q96EB1_C218 ([5]; 200 μM, insitu, 231): 20.0
isoTOP-ABPP ratio P35658_C728 ([2]; 200 μM, insitu, 231): 3.1
isoTOP-ABPP ratio Q8NFH5_C255 ([3]; 200 μM, insitu, 231): 5.5
isoTOP-ABPP ratio O75717_C773 ([6]; 200 μM, insitu, 231): 3.6
isoTOP-ABPP ratio P19447_C342 ([7]; 200 μM, insitu, 231): 5.9

O=C(CCl)Nc1cccc2ncccc12 [compound 51]
isoTOP-ABPP ratio O14980_C528 ([1]; 200 μM, insitu, 231): 1.1
